For experiment [1], the system named is NCI-H2122. Nature of the experiment: combination cScore with adagrasib (Bliss gap around IC50) (%PoC); higher = stronger additive effect. The essentials:
(§1)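 The score averages the gap between expected and measured viability under Bliss independence, taken over a field around the IC50 of each single agent or, where an IC50 was not reached, at the highest concentrations. Viability came from CellTiter-Glo luminescence, normalised to vehicle wells as percent of control and fitted with four-parameter curves. NCI-H2122, NCI-H358 and SW837 cells were dosed in concentration matrices 24 h after seeding and grown for 72 h, or 144 h for SW837.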

Experiment [2] deals with SW837. Described as above. The method in brief:
as §1

As for `COc1ccc2nc3ccc(OC)cc3c(SCCCN)c2c1` + C=C(F)C(=O)N1CCN(c2nc(OC[C@@H]3CCCN3C)nc3c2CCN(c2cccc4cccc(Cl)c24)C3)C[C@@H]1CC#N [adagrasib], the figures for the “combination cScore with adagrasib” value in experiment [1] and in experiment [2] were 7.77 and -2.24, respectively.
In the same order, the values of `O=C(Cc1ccccc1)Nc1nnc(CCSCCc2nnc(NC(=O)Cc3ccccc3)s2)s1` [BPTES] + C=C(F)C(=O)N1CCN(c2nc(OC[C@@H]3CCCN3C)nc3c2CCN(c2cccc4cccc(Cl)c24)C3)C[C@@H]1CC#N [adagrasib] are 8.57 and 7.09.
In the case of `COc1cc2cc(c1Cl)N(C)C(=O)C[C@H](OC(=O)C(C)C)[C@]1(C)O[C@@H]1[C@H](C)[C@@H]1C[C@@](O)(NC(=O)O1)[C@H](OC)/C=C/C=C(\C)C2` [Ansamitocin P3] + C=C(F)C(=O)N1CCN(c2nc(OC[C@@H]3CCCN3C)nc3c2CCN(c2cccc4cccc(Cl)c24)C3)C[C@@H]1CC#N [adagrasib], the figures for the “combination cScore with adagrasib” value in experiment [1] and in experiment [2] were -2.93 and 2.67, respectively.
Regarding `CC(=O)Nc1cccc(-n2c(=O)n(C3CC3)c(=O)c3c(Nc4ccc(I)cc4F)n(C)c(=O)c(C)c32)c1` [Trametinib] + C=C(F)C(=O)N1CCN(c2nc(OC[C@@H]3CCCN3C)nc3c2CCN(c2cccc4cccc(Cl)c24)C3)C[C@@H]1CC#N [adagrasib], the “combination cScore with adagrasib” value in experiment [1] is 6.74; in experiment [2] it was 13.6.
`O=C(O)CCCCC(CCSCc1ccccc1)SCc1ccccc1` (configuration not stated) [CPI-613] + C=C(F)C(=O)N1CCN(c2nc(OC[C@@H]3CCCN3C)nc3c2CCN(c2cccc4cccc(Cl)c24)C3)C[C@@H]1CC#N [adagrasib]: the “combination cScore with adagrasib” value in experiment [1] was -5.48; in experiment [2], 1.41.
The like results for `Cc1ccc(NC(=O)c2ccnc(C(F)(F)F)c2)cc1-c1cc(OCCO)nc(N2CCOCC2)c1` [LXH-254] + C=C(F)C(=O)N1CCN(c2nc(OC[C@@H]3CCCN3C)nc3c2CCN(c2cccc4cccc(Cl)c24)C3)C[C@@H]1CC#N [adagrasib] were, in that order, -3.51 and 0.67.
Regarding `Nc1nc(Nc2ccc3c(c2)CC[C@@H](N2CCCC2)CC3)nn1-c1cc2c(nn1)-c1ccccc1CCC2` [Bemcentinib] + C=C(F)C(=O)N1CCN(c2nc(OC[C@@H]3CCCN3C)nc3c2CCN(c2cccc4cccc(Cl)c24)C3)C[C@@H]1CC#N [adagrasib], the “combination cScore with adagrasib” value in experiment [1] is -0.08; in experiment [2], -0.26.
For `COc1cccc2c1C(=O)c1c(O)c3c(c(O)c1C2=O)C[C@@](O)(C(=O)CO)C[C@@H]3O[C@H]1C[C@H](N)[C@H](O)[C@H](C)O1` [Doxorubicin] + C=C(F)C(=O)N1CCN(c2nc(OC[C@@H]3CCCN3C)nc3c2CCN(c2cccc4cccc(Cl)c24)C3)C[C@@H]1CC#N [adagrasib], the “combination cScore with adagrasib” value was -0.16 in experiment [1] and 4.49 in experiment [2].
On to `CN(Cc1cnc2nc(N)nc(N)c2n1)c1ccc(C(=O)N[C@@H](CCC(=O)O)C(=O)O)cc1` [Methotrexate] + C=C(F)C(=O)N1CCN(c2nc(OC[C@@H]3CCCN3C)nc3c2CCN(c2cccc4cccc(Cl)c24)C3)C[C@@H]1CC#N [adagrasib], for which the figures for the “combination cScore with adagrasib” value in experiment [1] and in experiment [2] were -2.65 and -8.99, respectively.
Regarding `CC(C)c1cc(-c2n[nH]c(=O)n2-c2ccc3c(ccn3C)c2)c(O)cc1O` [Ganetespib] + C=C(F)C(=O)N1CCN(c2nc(OC[C@@H]3CCCN3C)nc3c2CCN(c2cccc4cccc(Cl)c24)C3)C[C@@H]1CC#N [adagrasib], the “combination cScore with adagrasib” value is -3.01 in experiment [1] and 4.14 in experiment [2].
As for `CC(C)C[C@@H](C(=O)N[C@H](C(=O)OC1CCCC1)c1ccccc1)[C@H](O)C(=O)NO` [Tosedostat] + C=C(F)C(=O)N1CCN(c2nc(OC[C@@H]3CCCN3C)nc3c2CCN(c2cccc4cccc(Cl)c24)C3)C[C@@H]1CC#N [adagrasib], the “combination cScore with adagrasib” value in experiment [1] is 1.4; in experiment [2], 19.8.
For `CN(C)C(=N)NC(=N)N` [Metformin] + C=C(F)C(=O)N1CCN(c2nc(OC[C@@H]3CCCN3C)nc3c2CCN(c2cccc4cccc(Cl)c24)C3)C[C@@H]1CC#N [adagrasib], the “combination cScore with adagrasib” value was -8.41 in experiment [1] and 1.92 in experiment [2].
For `N#CN=C(NCCCCCCOc1ccc(Cl)cc1)Nc1ccncc1` [GMX1778] + C=C(F)C(=O)N1CCN(c2nc(OC[C@@H]3CCCN3C)nc3c2CCN(c2cccc4cccc(Cl)c24)C3)C[C@@H]1CC#N [adagrasib], the entries for the “combination cScore with adagrasib” value in experiment [1] and in experiment [2] were -7.75 and 2.82, respectively.
In the same order, the values of `NC(=O)Nc1cc(-c2cccc(F)c2)sc1C(=O)N[C@H]1CCCNC1` [AZD-7762] + C=C(F)C(=O)N1CCN(c2nc(OC[C@@H]3CCCN3C)nc3c2CCN(c2cccc4cccc(Cl)c24)C3)C[C@@H]1CC#N [adagrasib] are -0.23 and -2.72.
As for `CC1(C)CCC(CN2CCN(c3ccc(C(=O)NS(=O)(=O)c4ccc(NCC5CCOCC5)c([N+](=O)[O-])c4)c(Oc4cnc5[nH]ccc5c4)c3)CC2)=C(c2ccc(Cl)cc2)C1` [ABT-199] + C=C(F)C(=O)N1CCN(c2nc(OC[C@@H]3CCCN3C)nc3c2CCN(c2cccc4cccc(Cl)c24)C3)C[C@@H]1CC#N [adagrasib], the “combination cScore with adagrasib” value in experiment [1] was 3.14; in experiment [2], -3.71.
Regarding `CS(=O)(=O)c1ccc(C(=O)Nc2ccc(Cl)c(-c3ccccn3)c2)c(Cl)c1` [Vismodegib] + C=C(F)C(=O)N1CCN(c2nc(OC[C@@H]3CCCN3C)nc3c2CCN(c2cccc4cccc(Cl)c24)C3)C[C@@H]1CC#N [adagrasib], the “combination cScore with adagrasib” value in experiment [1] worked out at 3.61; in experiment [2] it was 15.7.
The like results for `O=c1[nH]cc(F)c(=O)[nH]1` [Fluorouracil (5-FU)] + C=C(F)C(=O)N1CCN(c2nc(OC[C@@H]3CCCN3C)nc3c2CCN(c2cccc4cccc(Cl)c24)C3)C[C@@H]1CC#N [adagrasib] were, in that order, 9.62 and -0.87.
For the molecule `Cc1[nH]c(/C=C2\C(=O)Nc3ccc(S(=O)(=O)Cc4c(Cl)cccc4Cl)cc32)c(C)c1C(=O)N1CCC[C@@H]1CN1CCCC1` + C=C(F)C(=O)N1CCN(c2nc(OC[C@@H]3CCCN3C)nc3c2CCN(c2cccc4cccc(Cl)c24)C3)C[C@@H]1CC#N [adagrasib], the “combination cScore with adagrasib” value was 6.94 in experiment [1] and -0.48 in experiment [2].
In the same order, the values of `Cc1ccc(NC(=O)c2ccc(CN3CCN(C)CC3)cc2)cc1Nc1nccc(-c2cccnc2)n1` [Imatinib] + C=C(F)C(=O)N1CCN(c2nc(OC[C@@H]3CCCN3C)nc3c2CCN(c2cccc4cccc(Cl)c24)C3)C[C@@H]1CC#N [adagrasib] are -0.92 and -2.11.
For `NC(=O)c1cnc(N[C@@H]2CCCC[C@@H]2N)nc1Nc1cccc(-n2nccn2)c1` + C=C(F)C(=O)N1CCN(c2nc(OC[C@@H]3CCCN3C)nc3c2CCN(c2cccc4cccc(Cl)c24)C3)C[C@@H]1CC#N [adagrasib], the results for the “combination cScore with adagrasib” value in experiment [1] and in experiment [2] were 11.8 and 3.74, respectively.
Consider `CC[C@H](C)C(=O)O[C@H]1C[C@@H](C)C=C2C=C[C@H](C)[C@H](CC[C@@H]3C[C@@H](O)CC(=O)O3)[C@H]21` [Lovastatin] + C=C(F)C(=O)N1CCN(c2nc(OC[C@@H]3CCCN3C)nc3c2CCN(c2cccc4cccc(Cl)c24)C3)C[C@@H]1CC#N [adagrasib], for which the “combination cScore with adagrasib” value in experiment [1] is -4.64; in experiment [2] it was 1.03.
As to `CCN1CCN(c2ccc(Nc3cc(N(C)C(=O)Nc4c(Cl)c(OC)cc(OC)c4Cl)ncn3)cc2)CC1` [BGJ398] + C=C(F)C(=O)N1CCN(c2nc(OC[C@@H]3CCCN3C)nc3c2CCN(c2cccc4cccc(Cl)c24)C3)C[C@@H]1CC#N [adagrasib], the “combination cScore with adagrasib” value in experiment [1] was -3.17; in experiment [2] it was 3.09.
Turning to `CC(C)NC[C@@H](C(=O)N1CCN(c2ncnc3c2[C@H](C)C[C@H]3O)CC1)c1ccc(Cl)cc1` [Ipatasertib] + C=C(F)C(=O)N1CCN(c2nc(OC[C@@H]3CCCN3C)nc3c2CCN(c2cccc4cccc(Cl)c24)C3)C[C@@H]1CC#N [adagrasib], the “combination cScore with adagrasib” value in experiment [1] was determined as 1.14; in experiment [2] it was 6.57.
Turning to `CO[C@H]1C[C@@H]2CC[C@@H](C)[C@@](O)(O2)C(=O)C(=O)N2CCCC[C@H]2C(=O)O[C@H]([C@H](C)C[C@@H]2CC[C@@H](O)[C@H](OC)C2)CC(=O)[C@H](C)/C=C(\C)[C@@H](O)[C@@H](OC)C(=O)[C@H](C)C[C@H](C)/C=C/C=C/C=C/1C` [Rapamycin] + C=C(F)C(=O)N1CCN(c2nc(OC[C@@H]3CCCN3C)nc3c2CCN(c2cccc4cccc(Cl)c24)C3)C[C@@H]1CC#N [adagrasib], the “combination cScore with adagrasib” value in experiment [1] was determined as 4.11; in experiment [2], 6.52.
In the same order, the values of `Cn1nnc2c(C(N)=O)ncn2c1=O` [Temozolomide] + C=C(F)C(=O)N1CCN(c2nc(OC[C@@H]3CCCN3C)nc3c2CCN(c2cccc4cccc(Cl)c24)C3)C[C@@H]1CC#N [adagrasib] are 12.1 and 4.71.
As to `CN[C@H]1CN(c2ccc3c(=O)c(C(=O)O)cn(-c4nccs4)c3n2)C[C@@H]1OC` [Vosaroxin] + C=C(F)C(=O)N1CCN(c2nc(OC[C@@H]3CCCN3C)nc3c2CCN(c2cccc4cccc(Cl)c24)C3)C[C@@H]1CC#N [adagrasib], the “combination cScore with adagrasib” value in experiment [1] stood at 5.97; in experiment [2] it was 4.99.

Source of the values: the supplement of paper PMC11424490.
